Reference: article PMC10004634 (PLOS ONE, 2023)
Like-named read-outs stand apart in the source and are kept apart here.

Columns and labels:
PFCDPK1(P.falciparum) = target: T1, PFCDPK1(P.falciparum) (Plasmodium falciparum, UniProt P62344); test: biochemical
T1 construct: gene CDPK1

EGFR = EGFR (Homo sapiens, UniProt P00533); test: biochemical; design: KINOMEscan scanMAX competition binding, DNA-tagged kinases, qPCR read-out, percent control at 300 nM
ERBB2 = ERBB2 (Homo sapiens, UniProt P04626); test: biochemical; design: KINOMEscan scanMAX competition binding, DNA-tagged kinases, qPCR read-out, percent control at 300 nM
LIMK1 = LIMK1 (Homo sapiens, UniProt P53667); test: biochemical; design: KINOMEscan scanMAX competition binding, DNA-tagged kinases, qPCR read-out, percent control at 300 nM
NEK7 = NEK7 (Homo sapiens, UniProt Q8TDX7); test: biochemical; design: KINOMEscan scanMAX competition binding, DNA-tagged kinases, qPCR read-out, percent control at 300 nM
PHKG1 = PHKG1 (Homo sapiens, UniProt Q16816); test: biochemical; design: KINOMEscan scanMAX competition binding, DNA-tagged kinases, qPCR read-out, percent control at 300 nM
RIPK2 = RIPK2 (Homo sapiens, UniProt O43353); test: biochemical; design: KINOMEscan scanMAX competition binding, DNA-tagged kinases, qPCR read-out, percent control at 300 nM
ROS1 = ROS1 (Homo sapiens, UniProt P08922); test: biochemical; design: KINOMEscan scanMAX competition binding, DNA-tagged kinases, qPCR read-out, percent control at 300 nM
[1] = target: T2, RSK4(Kin.Dom.2-C-terminal) (Homo sapiens, UniProt Q9UK32); test: biochemical; design: KINOMEscan scanMAX competition binding, DNA-tagged kinases, qPCR read-out, percent control at 300 nM
T2 construct: gene RPS6KA6; Kin.Dom.2-C-terminal

TXK = target: T3, TXK (Homo sapiens, UniProt P42681); test: Z'-Lyte kinase inhibition assay; format: biochemical; design: purchased Thermo Fisher Scientific (Invitrogen Z'-Lyte service); conditions: 60 min preincubation
T3 sequence (P42681 1-527): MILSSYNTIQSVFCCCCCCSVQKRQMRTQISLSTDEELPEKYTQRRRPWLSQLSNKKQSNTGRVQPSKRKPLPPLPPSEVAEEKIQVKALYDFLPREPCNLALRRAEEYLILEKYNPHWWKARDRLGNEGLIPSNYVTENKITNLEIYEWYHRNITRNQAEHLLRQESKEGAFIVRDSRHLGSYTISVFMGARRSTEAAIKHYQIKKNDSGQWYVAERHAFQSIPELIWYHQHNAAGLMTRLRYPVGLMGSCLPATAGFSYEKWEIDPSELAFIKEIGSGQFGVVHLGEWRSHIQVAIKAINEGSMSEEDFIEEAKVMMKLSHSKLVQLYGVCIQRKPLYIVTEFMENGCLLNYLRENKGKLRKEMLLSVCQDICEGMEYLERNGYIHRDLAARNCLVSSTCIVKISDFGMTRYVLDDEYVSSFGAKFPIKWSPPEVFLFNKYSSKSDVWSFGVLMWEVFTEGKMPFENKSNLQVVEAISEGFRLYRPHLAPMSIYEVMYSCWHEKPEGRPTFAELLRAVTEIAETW
Experimental: In all the assays, each test compound was preincubated with peptide/kinase mixture or kinase/antibody mixture for 60 min at room temperature before adding the ATP solution or AlexaFluor labeled Tracer to initiate the 60-min incubation of the reactants.

PIK3CA(I800L) = PIK3CA(I800L) (Homo sapiens, UniProt P42336, I800L); test: biochemical; design: KINOMEscan scanMAX competition binding, DNA-tagged kinases, qPCR read-out, percent control at 300 nM
RIPK5 = target: T4, RIPK5 (Homo sapiens, UniProt Q6XUX3); test: biochemical; design: KINOMEscan scanMAX competition binding, DNA-tagged kinases, qPCR read-out, percent control at 300 nM
T4 construct: gene DSTYK
T4 sequence (Q6XUX3 1-929): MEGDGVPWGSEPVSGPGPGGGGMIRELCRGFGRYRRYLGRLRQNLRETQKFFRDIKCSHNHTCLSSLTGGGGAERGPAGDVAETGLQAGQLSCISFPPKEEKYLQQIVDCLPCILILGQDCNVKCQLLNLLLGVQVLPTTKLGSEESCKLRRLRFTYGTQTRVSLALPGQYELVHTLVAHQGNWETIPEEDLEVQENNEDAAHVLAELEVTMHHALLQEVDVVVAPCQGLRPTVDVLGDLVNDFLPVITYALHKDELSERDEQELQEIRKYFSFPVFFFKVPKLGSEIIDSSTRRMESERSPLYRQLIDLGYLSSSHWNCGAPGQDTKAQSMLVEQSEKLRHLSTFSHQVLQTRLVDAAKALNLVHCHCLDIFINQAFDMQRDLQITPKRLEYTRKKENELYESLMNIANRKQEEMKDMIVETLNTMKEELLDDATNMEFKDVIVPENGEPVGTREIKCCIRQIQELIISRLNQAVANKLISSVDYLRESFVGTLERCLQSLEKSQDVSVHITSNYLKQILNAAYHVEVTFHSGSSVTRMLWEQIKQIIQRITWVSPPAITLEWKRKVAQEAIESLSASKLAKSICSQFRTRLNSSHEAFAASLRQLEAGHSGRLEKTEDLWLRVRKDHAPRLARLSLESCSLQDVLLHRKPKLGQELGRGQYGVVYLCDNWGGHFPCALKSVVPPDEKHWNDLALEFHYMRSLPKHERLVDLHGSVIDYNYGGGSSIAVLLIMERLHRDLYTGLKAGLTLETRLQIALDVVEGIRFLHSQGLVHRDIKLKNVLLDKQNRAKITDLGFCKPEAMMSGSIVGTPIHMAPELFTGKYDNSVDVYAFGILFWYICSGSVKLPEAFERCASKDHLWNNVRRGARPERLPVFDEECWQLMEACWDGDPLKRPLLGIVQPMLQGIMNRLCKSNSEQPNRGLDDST

[2] = read-out: Percent control / Acalabrutinib
[3] = read-out: Percent control / Ibrutinib
[4] = read-out: Percent control / Tirabrutinib
[5] = read-out: Percent control / Zanubrutinib

Sequence of RIPK2 (O43353 whole entry): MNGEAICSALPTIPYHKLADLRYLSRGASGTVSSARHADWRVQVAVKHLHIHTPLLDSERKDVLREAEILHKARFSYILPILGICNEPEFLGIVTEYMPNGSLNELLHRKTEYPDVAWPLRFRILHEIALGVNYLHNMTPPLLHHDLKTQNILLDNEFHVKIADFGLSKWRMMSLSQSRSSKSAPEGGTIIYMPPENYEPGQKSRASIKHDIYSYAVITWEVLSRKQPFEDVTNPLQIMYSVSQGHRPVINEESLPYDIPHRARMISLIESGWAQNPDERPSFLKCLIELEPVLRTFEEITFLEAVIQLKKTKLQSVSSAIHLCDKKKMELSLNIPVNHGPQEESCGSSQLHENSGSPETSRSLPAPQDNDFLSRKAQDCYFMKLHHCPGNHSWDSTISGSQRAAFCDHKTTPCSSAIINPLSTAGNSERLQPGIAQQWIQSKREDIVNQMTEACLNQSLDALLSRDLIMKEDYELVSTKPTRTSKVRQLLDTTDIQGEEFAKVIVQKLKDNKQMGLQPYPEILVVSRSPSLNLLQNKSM
Sequence of EGFR (P00533 whole entry): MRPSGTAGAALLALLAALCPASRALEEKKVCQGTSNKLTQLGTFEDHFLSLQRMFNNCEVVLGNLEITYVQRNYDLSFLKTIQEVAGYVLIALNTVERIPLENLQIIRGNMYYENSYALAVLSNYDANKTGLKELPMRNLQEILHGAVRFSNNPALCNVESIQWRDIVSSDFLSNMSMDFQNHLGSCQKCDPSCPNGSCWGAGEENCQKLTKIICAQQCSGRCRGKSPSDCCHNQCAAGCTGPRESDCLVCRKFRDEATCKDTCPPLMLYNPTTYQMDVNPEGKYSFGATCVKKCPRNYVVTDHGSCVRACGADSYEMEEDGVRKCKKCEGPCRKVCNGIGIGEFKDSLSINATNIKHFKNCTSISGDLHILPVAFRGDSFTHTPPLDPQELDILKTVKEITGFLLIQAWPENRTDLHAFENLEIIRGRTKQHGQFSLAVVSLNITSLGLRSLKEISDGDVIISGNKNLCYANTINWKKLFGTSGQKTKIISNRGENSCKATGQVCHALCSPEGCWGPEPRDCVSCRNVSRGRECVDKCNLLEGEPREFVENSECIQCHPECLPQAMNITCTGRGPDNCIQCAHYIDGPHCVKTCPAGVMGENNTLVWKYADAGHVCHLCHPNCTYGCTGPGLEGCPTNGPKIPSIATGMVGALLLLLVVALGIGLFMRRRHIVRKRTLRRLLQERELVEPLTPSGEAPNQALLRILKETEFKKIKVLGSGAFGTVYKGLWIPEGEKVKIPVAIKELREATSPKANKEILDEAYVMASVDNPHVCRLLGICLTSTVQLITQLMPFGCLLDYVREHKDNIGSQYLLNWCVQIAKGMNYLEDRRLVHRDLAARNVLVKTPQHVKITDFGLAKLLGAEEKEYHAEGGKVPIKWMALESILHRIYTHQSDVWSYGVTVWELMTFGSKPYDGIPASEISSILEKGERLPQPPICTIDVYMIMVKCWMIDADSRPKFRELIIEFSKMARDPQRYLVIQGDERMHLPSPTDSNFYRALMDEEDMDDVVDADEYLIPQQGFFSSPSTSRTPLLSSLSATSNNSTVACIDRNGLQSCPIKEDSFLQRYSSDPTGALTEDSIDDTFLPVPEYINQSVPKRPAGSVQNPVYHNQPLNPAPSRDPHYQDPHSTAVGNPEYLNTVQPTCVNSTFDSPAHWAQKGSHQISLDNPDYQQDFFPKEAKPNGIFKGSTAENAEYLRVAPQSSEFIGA
Sequence of ROS1 (P08922 whole entry): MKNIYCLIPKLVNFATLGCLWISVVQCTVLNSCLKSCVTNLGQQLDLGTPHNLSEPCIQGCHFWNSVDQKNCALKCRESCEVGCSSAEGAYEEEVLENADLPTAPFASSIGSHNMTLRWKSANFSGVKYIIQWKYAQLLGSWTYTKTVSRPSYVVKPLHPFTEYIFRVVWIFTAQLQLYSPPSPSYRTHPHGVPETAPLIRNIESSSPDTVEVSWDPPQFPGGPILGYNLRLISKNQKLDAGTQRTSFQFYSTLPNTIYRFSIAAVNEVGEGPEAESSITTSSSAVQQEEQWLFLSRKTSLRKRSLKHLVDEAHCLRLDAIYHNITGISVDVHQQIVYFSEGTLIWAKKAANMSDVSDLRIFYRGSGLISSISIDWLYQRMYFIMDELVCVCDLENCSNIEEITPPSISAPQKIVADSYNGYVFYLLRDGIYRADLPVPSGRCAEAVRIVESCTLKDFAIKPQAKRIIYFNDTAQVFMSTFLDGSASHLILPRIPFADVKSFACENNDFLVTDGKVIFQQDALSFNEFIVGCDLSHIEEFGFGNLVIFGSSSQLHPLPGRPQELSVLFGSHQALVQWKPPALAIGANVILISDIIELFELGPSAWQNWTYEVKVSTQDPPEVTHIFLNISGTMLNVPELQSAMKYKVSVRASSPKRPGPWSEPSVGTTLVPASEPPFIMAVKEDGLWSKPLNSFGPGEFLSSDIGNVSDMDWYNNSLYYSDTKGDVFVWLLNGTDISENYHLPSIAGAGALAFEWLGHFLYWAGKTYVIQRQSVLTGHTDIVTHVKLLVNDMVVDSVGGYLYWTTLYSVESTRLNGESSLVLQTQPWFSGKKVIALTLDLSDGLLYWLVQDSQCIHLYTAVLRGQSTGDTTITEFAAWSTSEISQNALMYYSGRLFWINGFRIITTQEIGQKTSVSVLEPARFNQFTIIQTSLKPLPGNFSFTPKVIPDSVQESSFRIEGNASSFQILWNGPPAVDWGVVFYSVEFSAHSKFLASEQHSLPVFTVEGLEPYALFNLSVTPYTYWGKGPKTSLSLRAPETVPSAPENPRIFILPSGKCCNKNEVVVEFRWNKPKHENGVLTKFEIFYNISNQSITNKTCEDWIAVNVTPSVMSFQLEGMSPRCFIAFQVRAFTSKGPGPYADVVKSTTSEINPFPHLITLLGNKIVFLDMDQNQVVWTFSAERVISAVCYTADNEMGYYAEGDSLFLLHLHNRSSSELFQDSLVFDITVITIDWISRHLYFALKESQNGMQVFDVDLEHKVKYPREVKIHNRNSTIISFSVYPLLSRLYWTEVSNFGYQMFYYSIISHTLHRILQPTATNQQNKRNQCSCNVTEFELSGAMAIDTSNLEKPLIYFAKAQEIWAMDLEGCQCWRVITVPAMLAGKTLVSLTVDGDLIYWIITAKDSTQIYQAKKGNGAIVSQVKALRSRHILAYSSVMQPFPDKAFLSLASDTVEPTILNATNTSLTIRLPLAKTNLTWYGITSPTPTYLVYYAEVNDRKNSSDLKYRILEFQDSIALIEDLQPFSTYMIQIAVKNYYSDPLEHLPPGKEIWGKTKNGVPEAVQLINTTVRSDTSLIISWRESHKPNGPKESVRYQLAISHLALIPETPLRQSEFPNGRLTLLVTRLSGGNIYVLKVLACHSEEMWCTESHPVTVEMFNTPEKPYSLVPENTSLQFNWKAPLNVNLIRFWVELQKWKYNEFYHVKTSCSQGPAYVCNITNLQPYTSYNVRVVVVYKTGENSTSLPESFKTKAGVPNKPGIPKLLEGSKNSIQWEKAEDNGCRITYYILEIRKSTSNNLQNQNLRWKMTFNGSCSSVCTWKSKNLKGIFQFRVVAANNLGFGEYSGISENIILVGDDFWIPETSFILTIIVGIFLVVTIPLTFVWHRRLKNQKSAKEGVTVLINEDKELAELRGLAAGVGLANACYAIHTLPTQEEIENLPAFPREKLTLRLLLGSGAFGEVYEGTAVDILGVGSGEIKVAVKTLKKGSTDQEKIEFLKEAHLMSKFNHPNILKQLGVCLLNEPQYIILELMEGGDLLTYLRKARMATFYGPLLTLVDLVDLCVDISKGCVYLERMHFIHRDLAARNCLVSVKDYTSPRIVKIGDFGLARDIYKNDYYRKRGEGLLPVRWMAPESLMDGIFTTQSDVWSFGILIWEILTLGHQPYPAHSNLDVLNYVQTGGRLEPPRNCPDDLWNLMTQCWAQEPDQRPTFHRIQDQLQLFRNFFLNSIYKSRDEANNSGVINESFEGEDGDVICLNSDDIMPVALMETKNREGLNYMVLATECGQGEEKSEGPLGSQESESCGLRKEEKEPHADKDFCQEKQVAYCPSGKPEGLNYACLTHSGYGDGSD
T1 sequence (P62344 whole entry): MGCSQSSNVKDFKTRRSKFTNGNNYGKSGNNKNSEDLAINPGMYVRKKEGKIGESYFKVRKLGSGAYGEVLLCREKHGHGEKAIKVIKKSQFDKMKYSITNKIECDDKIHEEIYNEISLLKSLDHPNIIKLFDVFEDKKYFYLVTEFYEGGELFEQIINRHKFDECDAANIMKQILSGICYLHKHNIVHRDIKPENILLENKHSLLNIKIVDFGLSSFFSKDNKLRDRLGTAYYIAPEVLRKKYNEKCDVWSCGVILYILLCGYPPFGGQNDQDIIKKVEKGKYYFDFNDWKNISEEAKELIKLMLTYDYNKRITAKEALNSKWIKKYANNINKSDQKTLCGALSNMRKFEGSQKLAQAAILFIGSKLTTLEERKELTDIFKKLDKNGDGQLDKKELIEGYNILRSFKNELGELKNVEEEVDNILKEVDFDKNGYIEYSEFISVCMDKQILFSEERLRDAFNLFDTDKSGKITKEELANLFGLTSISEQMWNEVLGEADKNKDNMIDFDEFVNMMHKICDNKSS
Sequence of PHKG1 (Q16816 whole entry): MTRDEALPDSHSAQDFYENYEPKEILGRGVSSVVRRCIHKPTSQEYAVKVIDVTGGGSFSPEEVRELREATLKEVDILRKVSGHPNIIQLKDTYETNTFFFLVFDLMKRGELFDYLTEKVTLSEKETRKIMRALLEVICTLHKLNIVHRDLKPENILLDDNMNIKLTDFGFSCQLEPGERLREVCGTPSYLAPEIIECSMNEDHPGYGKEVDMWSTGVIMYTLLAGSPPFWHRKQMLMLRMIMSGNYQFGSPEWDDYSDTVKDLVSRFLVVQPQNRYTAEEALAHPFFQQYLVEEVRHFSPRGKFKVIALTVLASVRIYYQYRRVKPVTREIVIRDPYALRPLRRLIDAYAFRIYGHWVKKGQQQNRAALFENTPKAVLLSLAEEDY

## CC#CC(=O)N1CCC[C@H]1c1nc(-c2ccc(C(=O)Nc3ccccn3)cc2)c2c(N)nccn12 [Acalabrutinib]
PFCDPK1(P.falciparum); [2]
  remaining activity at 0.3 µM: 23%
EGFR; [2]
  remaining binding at 0.3 µM: 82%
ERBB2; [2]
  remaining binding at 0.3 µM: 11%
LIMK1; [2]
  remaining binding at 0.3 µM: 47%
NEK7; [2]
  remaining binding at 0.3 µM: 76%
PHKG1; [2]
  remaining binding at 0.3 µM: 92%
RIPK2; [2]
  remaining binding at 0.3 µM: 79%
ROS1; [2]
  remaining binding at 0.3 µM: 86%
[1]; [2]
  remaining binding at 0.3 µM: 95%
TXK
  IC50: 273 nM

## C=CC(=O)N1CCC[C@@H](n2nc(-c3ccc(Oc4ccccc4)cc3)c3c(N)ncnc32)C1 [Ibrutinib]
PFCDPK1(P.falciparum); [3]
  remaining activity at 0.3 µM: 0.9%
EGFR; [3]
  remaining binding at 0.3 µM: 0.2%
LIMK1; [3]
  remaining binding at 0.3 µM: 57%
NEK7; [3]
  remaining binding at 0.3 µM: 97%
PIK3CA(I800L); [3]
  remaining binding at 0.3 µM: 71%
RIPK2; [3]
  remaining binding at 0.3 µM: 6.4%
RIPK5; [3]
  remaining binding at 0.3 µM: 47%

## CC#CC(=O)N1CC[C@@H](n2c(=O)n(-c3ccc(Oc4ccccc4)cc3)c3c(N)ncnc32)C1 [Tirabrutinib]
EGFR; [4]
  remaining binding at 0.3 µM: 100%
ERBB2; [4]
  remaining binding at 0.3 µM: 36%
PHKG1; [4]
  remaining binding at 0.3 µM: 83%
PIK3CA(I800L); [4]
  remaining binding at 0.3 µM: 91%
RIPK2; [4]
  remaining binding at 0.3 µM: 33%
RIPK5; [4]
  remaining binding at 0.3 µM: 93%
ROS1; [4]
  remaining binding at 0.3 µM: 94%
[1]; [4]
  remaining binding at 0.3 µM: 93%
TXK
  IC50: 54.5 nM

## C=CC(=O)N1CCC([C@@H]2CCNc3c(C(N)=O)c(-c4ccc(Oc5ccccc5)cc4)nn32)CC1 [Zanubrutinib]
PFCDPK1(P.falciparum); [5]
  remaining activity at 0.3 µM: 7.4%
ERBB2; [5]
  remaining binding at 0.3 µM: 16%
LIMK1; [5]
  remaining binding at 0.3 µM: 100%
NEK7; [5]
  remaining binding at 0.3 µM: 91%
PHKG1; [5]
  remaining binding at 0.3 µM: 67%
PIK3CA(I800L); [5]
  remaining binding at 0.3 µM: 68%
RIPK5; [5]
  remaining binding at 0.3 µM: 100%
ROS1; [5]
  remaining binding at 0.3 µM: 100%
[1]; [5]
  remaining binding at 0.3 µM: 82%
TXK
  IC50: 4.59 nM
